ChEMBL document CHEMBL4428094, “Insights into the structure-activity relationship of the anticancer compound ZJ-101, a derivative of marine natural product superstolide A: A role played by the lactone moiety” (Bioorg Med Chem Lett, 2016)

Experiments:
Assay type in all cases: functional, cell-based
[1] = tested on: SF-295; test: Antiproliferative activity against human SF295 cells assessed as reduction in cell viability by Alamar blue assay
[2] = tested on: HCT-116; test: Antiproliferative activity against human HCT116 cells assessed as reduction in cell viability by Alamar blue assay
[3] = tested on: HeLa; test: Antiproliferative activity against human HeLa cells assessed as reduction in cell viability by Alamar blue assay
[4] = tested on: MDA-MB-231; test: Antiproliferative activity against human MDA-MB-231 cells assessed as reduction in cell viability by Alamar blue assay
[5] = tested on: MCF7; test: Antiproliferative activity against human MCF7 cells assessed as reduction in cell viability by Alamar blue assay

Compound	IC50 [1]	IC50 [2]	IC50 [3]	IC50 [4]	IC50 [5]
CC(=O)N[C@H](C)[C@@H](O)[C@@H](C)[C@@H]1OC(=O)/C=C/C=C(C)\C=C\[C@]2(C)CCC=C[C@@H]2/C=C(C)/C=C/[C@H]1C	0.0635 µM	0.094 µM	0.0754 µM	–	–
CC(=O)N[C@H](C)[C@@H](O)[C@@H](C)[C@@H]1NC(=O)/C=C/C=C(C)\C=C\[C@]2(C)CCC=C[C@@H]2/C=C(C)/C=C/[C@H]1C	0.716 µM	0.747 µM	0.597 µM	0.584 µM	0.448 µM
